Assay results from paper PMC5920098, “Identification of the allosteric P2X7 receptor antagonist [^11C]SMW139 as a PET tracer of microglial activation” (Scientific Reports, 2018).
Entries after “also recorded” stand apart in the source; their conditions may differ.

How the values were obtained:
human P2X7R = biological target: human P2X7R; parameters: method as in PMID 28841278; conditions: cited from earlier work
P2X7R = biological target: T1, P2X7R (Homo sapiens, UniProt Q99572); experiment: In vitro autoradiography on post mortem human brain tissue (AD patients and controls); format: binding; conditions: blocker 10 µM, AD patients and controls
T1 construct: Snap frozen human post-mortem; tissue The Netherlands Brain Bank; host or cells: post mortem human temporal cortex (AD patients and non-neurological controls)
T1 sequence (Q99572 1-595): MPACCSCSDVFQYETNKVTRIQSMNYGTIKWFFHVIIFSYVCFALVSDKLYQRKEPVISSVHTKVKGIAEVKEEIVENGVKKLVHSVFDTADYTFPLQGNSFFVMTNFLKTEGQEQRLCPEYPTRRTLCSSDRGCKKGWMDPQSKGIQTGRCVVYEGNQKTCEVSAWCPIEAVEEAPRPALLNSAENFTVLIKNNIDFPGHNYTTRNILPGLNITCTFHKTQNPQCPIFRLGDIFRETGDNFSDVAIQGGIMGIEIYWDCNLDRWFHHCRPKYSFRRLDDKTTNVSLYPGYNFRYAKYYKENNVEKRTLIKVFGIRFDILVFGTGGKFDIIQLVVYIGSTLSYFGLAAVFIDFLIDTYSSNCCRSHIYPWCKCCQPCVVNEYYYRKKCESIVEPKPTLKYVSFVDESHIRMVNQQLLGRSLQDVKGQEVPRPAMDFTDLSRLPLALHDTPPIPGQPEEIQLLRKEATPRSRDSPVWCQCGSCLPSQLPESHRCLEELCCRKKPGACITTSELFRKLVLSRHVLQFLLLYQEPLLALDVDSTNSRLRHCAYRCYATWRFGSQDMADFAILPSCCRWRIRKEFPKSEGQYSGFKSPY

hP2X7R = biological target: T2, hP2X7R (Homo sapiens, UniProt Q99572); experiment: PET imaging in rats locally overexpressing hP2X7R in right striatum; format: in vivo, rat; conditions: 30 mg·kg^−1 s.c., 45 min prior to tracer injection
T2 construct: 3xFLAG (3flag); expressed in transfected cells; host or cells: rat striatum (female Wistar rats), transduced in vivo with the AAV vector rAAV_3flag-hP2X7R
T2 sequence (Q99572 1-595): T1 sequence (Q99572 1-595)
Description: Uptake of [^11C]SMW139 was 1.5-fold higher in the right striatum compared with the contralateral striatum at 4–15 min p.i. (n = 3; Fig. 6A,B, and Supplementary Figure S5, 5 weeks after vector injection). […] (2.85 ± 0.69 vs. 2.30 ± 0.36 in contralateral striatum) throughout the remainder of the scanning time.
Female rats were injected with the hP2X7R expressing vector in the right striatum, and eGFP expressing vector in the left striatum, which is described in detail in the Supplementary Information. […] To confirm stable expression of hP2X7R during the time period in which PET scanning studies were conducted, autoradiography experiments were performed both prior to and following PET experiments. In a dedicated small animal PET scanner (nanoPET, Mediso Ltd.), 60 min dynamic PET scans were acquired immediately after intravenous administration of 16–20 MBq of [^11C]SMW139. […] 45 min prior to tracer injection. After data reconstruction (details in Supplementary Information), images were analysed using the freely available AMIDE software (version 0.9.2; http://amide.sourceforge.net). ROIs were drawn around ipsi- and contralateral striata. Results are expressed as standardised uptake values (SUVs) and error bars indicate standard deviation.
Stereotactic injection of viral vector […]
to a 10 µL Hamilton syringe. […]
dorsoventral -0.64 cm relative to bregma. […]
minutes before removing it slowly.
Rats were sacrificed for in
Dynamic PET imaging was performed using dedicated small animal NanoPET/CT and NanoPET/MR scanners (Mediso Ltd., Budapest, Hungary) which are equipped with identical PET components. […]
anaesthetised with 4% and 2% isoflurane in oxygen (1 L·min-1) for induction and maintenance, respectively. Rats were positioned on the scanner bed and their respiratory rate was monitored during the entire scan, and anaesthesia was adjusted whenever required. Dynamic PET scans were acquired immediately after intravenous (i.v.) administration of 16-20 MBq of [11C]SMW139 via the tail vein. For […]
hydroxypropyl)-β-cyclodextrin in water for injection 45 min prior to tracer injection. PET scans were acquired in list mode and rebinned into the following frame sequence: 4 × 5, 4 x 10, 2 x 30, 3x 60, 2 x 300, 1 x 600, 1 x 900 and 1 x 1200 s. Reconstruction was performed using a fully 3-dimensional reconstruction algorithm (Tera-TomoTM, Mediso Ltd.) with 4 iterations and 6 subsets, and an isotropic 0.4 mm voxel dimension. Images were analysed using the freely available AMIDE software (version 0.9.2; http://amide.sourceforge.net). 3D ellipsoid ROIs (dimensions x = 3.4 mm, y = 3.6 mm, z = 2.9 […]
mm) were drawn within ipsi- and contralateral striata. Results are expressed as standardised uptake values (SUVs) and error bars indicate standard deviation. SUV were calculated as follows, with cimg in MBq/mL, injected dose in MBq and bodyweight in kg:
An unpaired two-tailed t-test was used for statistical analysis of PET data, which was performed using […]
allowed to recover for 1 week after scanning. After 1 week of recovery following the final scan (12 weeks after stereotactic vector injection) animals were sacrificed, and brains were excised and stored […]
Extended single microdose toxicity study
A single microdose toxicity study according to EMEA guideline EMA/CPMP/ICH/286/1995 (December 2009) was performed in healthy Wistar rats at a 1000 times higher dose than the maximal dose […]
minimum specific activity of 18.5 GBq·µmol-1). Animals were allowed to acclimatise for 10 days, group-housed and in an enriched environment with food and water available ad libitum, and with a 12-hour light-dark cycle in a temperature controlled room.

Compound | Ki (human P2X7R) | Blocking of [^11C]SMW139 binding in post mortem human brain tissue (P2X7R) | Effect of pre-treatment on [^11C]SMW139 uptake/binding in rAAV_3flag-hP2X7R striatum (hP2X7R)
COc1ccc(Cl)c(C(=O)NCC23CC4CC(CC(F)(C4)C2)C3)c1 [compound 2] | 22 nM |  | 
COc1ccc(Cl)c(C(=O)NCC23CC4CC(CC(C4)C2)C3)c1 [compound 1] | 9 nM |  | 
O=C(NCC1(N2CCN(c3ccccc3)CC2)CCOCC1)c1cccnc1Sc1ccccc1 [JNJ-47965567, reference compound] |  | fully blocked; also recorded: virtually complete blocking | down to baseline levels; also recorded: significantly decreased
COc1ccc(Cl)c(C(=O)NCC23CC4CC(F)(CC(F)(C4)C2)C3)c1 [compound 3] | 23 nM |  | 
